From patent US20240262814A1, “MODULATORS OF TREX1” (Constellation Pharmaceuticals, Inc., priority 2021, published 2024) come the findings set out here.

One experiment concerns the target T1, mouse TREX1 (Mus musculus, UniProt Q91XB0).
T1 construct: N-terminally His-Tev tagged full length mouse TREX1; made in house; host or cells: E. coli
T1 sequence (Q91XB0 1-314): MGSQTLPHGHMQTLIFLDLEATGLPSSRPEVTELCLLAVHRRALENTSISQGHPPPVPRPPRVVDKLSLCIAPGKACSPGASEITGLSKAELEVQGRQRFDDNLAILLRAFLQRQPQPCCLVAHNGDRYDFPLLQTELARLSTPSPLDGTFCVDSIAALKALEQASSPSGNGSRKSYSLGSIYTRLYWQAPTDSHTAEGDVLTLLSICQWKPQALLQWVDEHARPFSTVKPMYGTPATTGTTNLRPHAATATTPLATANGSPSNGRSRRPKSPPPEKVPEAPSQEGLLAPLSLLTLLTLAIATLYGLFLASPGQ
Description: mTREX1 Biochemical Assay (fluorescence, dsDNA substrate degradation). The conditions noted are these: full length mouse TREX1, 4 h pre-incubation, 18 h reaction at 25° C. Here is the method:
(§1) Degradation of the dsDNA liberates free fluorophore to produce a fluorescent signal. Specifically, 7.5 p L of N-terminally His-Tev tagged full length mouse TREX1 (expressed in E. coli and purified in house) in reaction buffer (50 mM Tris, 150 mM NaCl, 2 mM DTT, 0.1 mg/mL BSA, 0.01% (w/v) Tween-20, 5 mM MgCl2, pH 7.4) was added to a 384-well Black ProxiPlate Plus (PerkinElmer) which already contained compound (150 nL) at varying concentrations as a 10 point dose-response in DMSO. The plate was incubated at 25° C. for 4 hours. Reactions were initiated by adding 7.5 μL of dsDNA substrate (Strand A: 5′ TEX615/GCT AGG CAG 3′; Strand B: 5′ CTG CCT AGC/IAbRQSp (Integrated DNA Technologies)) in reaction buffer. Final concentrations were 6 pM TREX1, 60 nM dsDNA substrate in reaction buffer with 1.0% DMSO (v/v). After 18 hours at 25° C., reactions were quenched by the addition of 2 p L of 500 mM EDTA. Final concentrations in the quenched reaction were 5.3 pM TREX1, 53 nM DNA and 59 mM EDTA in a volume of 17 p L. After a 5-minute incubation at room temperature, plates were read in an EnVision plate reader (PerkinElmer) measuring fluorescence at 615 nm following excitation w/ 570 nm light. IC50 values were calculated by comparing the measured fluorescence at 615 nm relative to control wells pre-quenched w/ EDTA (100% inhibition) and no inhibitor (0% inhibition) controls as using non-linear least square four parameter fits and either Genedata or GraphPad Prism (GraphPad Software, Inc.).

The target of a further experiment is T2, human TREX1 (Homo sapiens, UniProt Q9NSU2).
T2 construct: N-terminally His-Tev tagged full length human TREX1; made in house; host or cells: E. coli
T2 sequence (Q9NSU2 1-314): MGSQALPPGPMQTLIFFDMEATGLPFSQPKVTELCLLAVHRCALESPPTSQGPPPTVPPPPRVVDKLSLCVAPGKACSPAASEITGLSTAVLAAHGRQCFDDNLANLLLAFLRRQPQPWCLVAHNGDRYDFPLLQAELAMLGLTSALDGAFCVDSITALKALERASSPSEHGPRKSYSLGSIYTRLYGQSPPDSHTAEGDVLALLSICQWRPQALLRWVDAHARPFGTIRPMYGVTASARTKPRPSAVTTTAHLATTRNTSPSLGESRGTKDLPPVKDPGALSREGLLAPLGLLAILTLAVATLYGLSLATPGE
Description: hTREX1 Biochemical Assay (fluorescence, dsDNA substrate degradation). The following applies: full length human TREX1, 4 h pre-incubation, 18 h reaction at 25° C. Here is the method: as §1, with “7.5 μL” for “7.5 p L”, “length human” for “length mouse”, “were 4” for “were 6”, “were 3.5” for “were 5.3”, “17 μL.” for “17 p L.”

In the next experiment the target is T3, human TREX2 (Homo sapiens, UniProt Q9BQ50).
T3 construct: human TREX2 (residues M44-A279, expressed in E. coli); made in house; host or cells: E. coli
T3 sequence (Q9BQ50 44-279 isoform Q9BQ50-1): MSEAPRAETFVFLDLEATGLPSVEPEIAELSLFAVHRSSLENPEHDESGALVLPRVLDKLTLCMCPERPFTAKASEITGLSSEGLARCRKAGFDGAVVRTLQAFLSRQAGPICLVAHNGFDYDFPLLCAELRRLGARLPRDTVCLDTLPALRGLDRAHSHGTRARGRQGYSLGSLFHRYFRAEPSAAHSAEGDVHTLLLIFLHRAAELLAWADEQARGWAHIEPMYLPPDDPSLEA
Description: hTREX2 Biochemical Assay (selectivity hTREX1 vs hTREX2). The following applies: biochemical selectivity for hTREX1 vs hTREX2. How it is done: Degradation of the dsDNA liberates free fluorophore to produce a fluorescent signal. Specifically, 7.5 p L of N-terminally His-Tev tagged human TREX2 (residues M44-A279, expressed in E. coli and purified in house) in reaction buffer (50 mM Tris, 150 mM NaCl, 2 mM DTT, 0.1 mg/mL BSA, 0.01% (w/v) Tween-20, 5 mM MgCl2, pH 7.4) was added to a 384-well Black ProxiPlate Plus (PerkinElmer) which already contained compound (150 nL) at varying concentrations as a 10 point dose-response in DMSO. The plate was incubated at 25° C. for 4 hours. Reactions were initiated by adding 7.5 μL of dsDNA substrate (Strand A: 5′ TEX615/GCT AGG CAG 3′; Strand B: 5′ CTG CCT AGC/IAbRQSp (IDT)) in reaction buffer. Final concentrations were 50 pM TREX2, 60 nM dsDNA substrate in reaction buffer with 1.0% DMSO (v/v). After 18 hours at 25° C., reactions were quenched by the addition of 2 μL of 500 mM EDTA. Final concentrations in the quenched reaction mixture were 44 pM TREX2, 53 nM DNA and 59 mM EDTA in a volume of 17 μL. After a 5-minute incubation at room temperature, plates were read in an EnVision plate reader (PerkinElmer) measuring fluorescence at 615 nm following excitation w/ 570 nm light. IC50 values were calculated by comparing the measured fluorescence at 615 nm relative to control wells pre-quenched w/ stop buffer (100% inhibition) and no inhibitor (0% inhibition) controls as using non-linear least square four parameter fits and either Genedata or GraphPad Prism (GraphPad Software, Inc.).

Consider `CC(c1nc(C(=O)Nc2cnoc2)c(O)c(=O)n1C)C(c1ccc(F)c(F)c1)c1ccccc1C#N` (single isomer, unassigned) [Example 12 Isomer 3], for which the IC50 against mouse TREX1 and at human TREX1 was < 1 nM in each case. For the same compound, the “hTREX1 vs hTREX2 selectivity” value at human TREX2 was “B (B = 25 to 50 fold selective for hTREX1)”.
As to `CC(c1nc(C(=O)Nc2cnoc2)c(O)c(=O)n1C)C(c1ccccc1Cl)c1ccccc1C#N` (single isomer, unassigned) [Example 10 Isomer 3], the IC50 (usually the point on the concentration scale where inhibition reaches its midpoint) at mouse TREX1 was 1 to 10 nM; against human TREX1, < 1 nM. In addition, the “hTREX1 vs hTREX2 selectivity” value on human TREX2 is listed as “C (C = >50 fold selective for hTREX1)”.
Take `CC(c1nc(C(=O)Nc2cnoc2)c(O)c(=O)n1C)C(c1ccccc1)c1ccc(F)cc1C#N` (single isomer, unassigned) [Example 7 Isomer 2]: the IC50 on mouse TREX1 is > 10 nM; against human TREX1, > 100 nM. Further, at human TREX2, the “hTREX1 vs hTREX2 selectivity” value is recorded as “A (A = <25 fold selective for hTREX1)”.
For `CC(c1nc(C(=O)Nc2cnoc2)c(O)c(=O)n1C)C(c1ccccc1)c1cc(C(=O)N(C)C)ccc1C#N` (single isomer, unassigned) [Example 17 Isomer 1], the concentration for half-maximal inhibition (IC50) was > 10 nM on mouse TREX1 and 10 to 100 nM against human TREX1. Moreover, the “hTREX1 vs hTREX2 selectivity” value on human TREX2 is recorded as “A (A = <25 fold selective for hTREX1)”.
Take `CC(c1nc(C(=O)Nc2cnoc2)c(O)c(=O)n1C)C(c1cc(F)cc(F)c1)c1ccccc1C#N` (single isomer, unassigned) [Example 11 Isomer 2]: the values for the IC50 against mouse TREX1 and against human TREX1 were > 10 nM and 1 to 10 nM, respectively. Further, at human TREX2, the “hTREX1 vs hTREX2 selectivity” value is “C (C = >50 fold selective for hTREX1)”.
The corresponding values for `CC(c1nc(C(=O)Nc2cnoc2)c(O)c(=O)n1C)C(c1ccccc1)c1ccc(F)cc1C#N` (single isomer, unassigned) [Example 7 Isomer 4] are 1 to 10 nM, < 1 nM and “B (B = 25 to 50 fold selective for hTREX1)”.
The corresponding values for `CC(c1nc(C(=O)Nc2cnoc2)c(O)c(=O)n1C)C(c1ccccc1)c1cc(Cl)ccc1C#N` (single isomer, unassigned) [Example 8 Isomer 4] are > 10 nM, 10 to 100 nM and “B (B = 25 to 50 fold selective for hTREX1)”.
For the compound `CC(c1nc(C(=O)Nc2cnoc2)c(O)c(=O)n1C)C(c1ccc(F)c(F)c1)c1ccccc1C#N` (single isomer, unassigned) [Example 12 Isomer 4], the IC50 at mouse TREX1 is > 10 nM; at human TREX1, 10 to 100 nM. In addition, at human TREX2, the “hTREX1 vs hTREX2 selectivity” value is given as “A (A = <25 fold selective for hTREX1)”.
Regarding `Cn1c(C(F)(F)C(c2ccccc2)c2ccccc2)nc(C(=O)Nc2cnoc2)c(O)c1=O` [Example 19, 2-(1,1-difluoro-2,2-diphenylethyl)-5-hydroxy-N-(isoxazol-4-yl)-1-methyl-6-oxo-1,6-dihydropyrimidine-4-carboxamide], the IC50 was > 10 nM against mouse TREX1 and 10 to 100 nM against human TREX1. Besides, on human TREX2, the “hTREX1 vs hTREX2 selectivity” value was “B (B = 25 to 50 fold selective for hTREX1)”.
The corresponding values for `CC(c1nc(C(=O)Nc2cnoc2)c(O)c(=O)n1C)C(c1cc(F)cc(F)c1)c1ccccc1C#N` (single isomer, unassigned) [Example 11 Isomer 4] are 1 to 10 nM, 1 to 10 nM and “A (A = <25 fold selective for hTREX1)”.
Turning to `Cn1c([C@@H](C(c2ccccc2C#N)c2ccccc2C#N)C(F)(F)F)nc(C(=O)Nc2cnoc2)c(O)c1=O` (single isomer, unassigned) [Example 21 Isomer 2, 2-(3,3-bis(2-cyanophenyl)-1,1,1-trifluoropropan-2-yl)-5-hydroxy-N-(isoxazol-4-yl)-1-methyl-6-oxo-1,6-dihydropyrimidine-4-carboxamide], the concentration for half-maximal inhibition (IC50) at mouse TREX1 is > 10 nM; on human TREX1, 10 to 100 nM. The “hTREX1 vs hTREX2 selectivity” value at human TREX2 is given as “C (C = >50 fold selective for hTREX1)”.
The corresponding values for `C[C@H](c1nc(C(=O)Nc2cnoc2)c(O)c(=O)n1C)[C@H](c1ccccc1)c1ccc(C(=O)N(C)C)cc1C#N` (single isomer, unassigned) [Example 16 Isomer 4, 2-(1-(2-cyano-4-(dimethylcarbamoyl)phenyl)-1-phenylpropan-2-yl)-5-hydroxy-N-(isoxazol-4-yl)-1-methyl-6-oxo-1,6-dihydropyrimidine-4-carboxamide] are < 1 nM, < 1 nM and “B (B = 25 to 50 fold selective for hTREX1)”.
The corresponding values for `CC(c1nc(C(=O)Nc2cnoc2)c(O)c(=O)n1C)C(c1ccccc1)c1ccccc1C#N` (single isomer, unassigned) [Example 3 Isomer 1] are > 10 nM, 1 to 10 nM and “B (B = 25 to 50 fold selective for hTREX1)”.
